Experimental data reported in paper PMC7658073 (Clinical Pharmacokinetics, 2020).
“Also recorded” adds a separate entry of the source.

Experiments:
Type in all cases: in vivo, human
[1] = Phase I DDI study with midazolam
[2] = Phase I DDI study with sacubitril/valsartan; conditions: vericiguat at steady state with sacubitril/valsartan
[3] = Phase I DDI study with sildenafil
[4] = midazolam with vericiguat 10 mg vs midazolam alone
[5] = sildenafil 100 mg with vericiguat vs with placebo

| Structure (SMILES) | Increase in AUC0–12,md (exposure) [2] | Increase in Cmax,md (peak concentration) [2] | also measured |
| --- | --- | --- | --- |
| OCc1ncc2n1-c1ccc(Cl)cc1C(c1ccccc1F)=NC2 [1ʹ-hydroxy midazolam] |  |  | Decrease in AUC [1, 4]: 12%; Decrease in Cmax [1, 4]: 16% |
| C[C@H](C[C@@H](Cc1ccc(-c2ccccc2)cc1)NC(=O)CCC(=O)O)C(=O)O [LBQ657] | unchanged; also recorded: unaffected | unchanged; also recorded: unaffected |  |
| Cc1ncc2n1-c1ccc(Cl)cc1C(c1ccccc1F)=NC2 [Midazolam, reference compound] |  |  | Reduction in midazolam exposure ([1]; after 3 days pre-treatment and 1 day co-treatment with vericiguat 10 mg): 18% |
| CCOC(=O)[C@H](C)C[C@@H](Cc1ccc(-c2ccccc2)cc1)NC(=O)CCC(=O)O [Sacubitril, reference compound] | 8% | 18% |  |
| CCCc1nn(C)c2c(=O)[nH]c(-c3cc(S(=O)(=O)N4CCN(C)CC4)ccc3OCC)nc12 [Sildenafil, reference compound] |  |  | Increase in exposure of sildenafil [3, 5]: 13%; Increase in maximum concentration of sildenafil [3, 5]: 17%; Increase in exposure for sildenafil co-administered with vericiguat ([3]; sildenafil 25, 50 or 100 mg, vs sildenafil with placebo): ≤ 22.4% |
| CCCCC(=O)N(Cc1ccc(-c2ccccc2-c2nnn[nH]2)cc1)[C@H](C(=O)O)C(C)C [Valsartan, reference compound] | 12% | 13% |  |
